Reference: paper PMC6937593, “Anti-metastatic Inhibitors of Lysyl Oxidase (LOX): Design and Structure–Activity Relationships” (Journal of Medicinal Chemistry, 2019)

How the values were obtained:
[1] = MLM stability assay; type: in vitro ADME, mouse; settings: percentage of compound remaining after 30 min; 10 μM
Procedure: Mouse liver microsomes (BALB/c) were purchased from Tebu-bio, and the assay was performed by methods previously described.[19] Inhibitors at 10 μM concentration incubated with the microsomes were assessed at 0, 15, and 30 min. Control samples containing no microsomes and no cofactors were also assessed at 0 and 30 min. Samples were extracted by protein precipitation and centrifugation for 20 min in a refrigerated centrifuge (4 °C) at 3700 rpm. The supernatant was analyzed by LCMS/MS for % metabolized over time.

[2] = target: T1, LOX (Sus scrofa, UniProt P45845); assay: LOX enzyme activity assay (HRP-coupled fluorescent, cadaverine substrate); type: biochemical, pig;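 also: LOX isolated from porcine skin, nine-point dilution series starting at 100 µM, 20 min preincubation with enzyme, BAPN serving as positive control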
T1 construct: LOX enzyme was extracted from pig skin by the method of Shackleton and Hulmes; from tissue; host or cells: pig skin
T1 sequence (P45845 1-249): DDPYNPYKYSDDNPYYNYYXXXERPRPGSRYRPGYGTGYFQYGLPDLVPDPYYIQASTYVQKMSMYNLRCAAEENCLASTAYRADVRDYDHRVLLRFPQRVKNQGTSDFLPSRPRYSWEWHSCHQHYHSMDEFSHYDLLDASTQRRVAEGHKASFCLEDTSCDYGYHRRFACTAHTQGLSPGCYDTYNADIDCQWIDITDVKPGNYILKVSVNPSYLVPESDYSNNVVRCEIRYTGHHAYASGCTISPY
Procedure: LOX enzyme was extracted from pig skin by the method of Shackleton and Hulmes.[24] LOX catalytic activity was determined using a horseradish peroxidase (HRP)-coupled fluorescent assay previously described,[19] with cadaverine hydrochloride as a substrate, BAPN as positive control, and a preincubation time of 20 min with nine dilutions from a top concentration of 100 μM.

[3] = In vivo PK in mice; design: species or system mouse
Procedure: Female BALB/c or CD1 mice (Charles River Laboratories) at 6 weeks of age were used for the PK analyses. The mice were dosed orally by gavage (50 mg/kg in dimethyl sulfoxide (DMSO)/water 1:19 v/v; n = 21) or intravenously in the tail vein (10 mg/kg in DMSO/Tween20/saline 10:1:89 v/v/v; n = 24). […] Three mice were used per time point per route. They were placed under halothane or isoflurane anesthesia, and blood for plasma preparation was taken by terminal cardiac puncture into heparinized syringes. Plasma samples were snap-frozen in liquid nitrogen and then stored at −80 °C prior to analysis.

[4] = target: T2, MAO-B (Homo sapiens, UniProt P27338); assay: MAO-B assay (MAO-Glo); type: biochemical; settings: n = 2 individual values
T2 construct: purchased Sigma
T2 sequence (P27338 1-520): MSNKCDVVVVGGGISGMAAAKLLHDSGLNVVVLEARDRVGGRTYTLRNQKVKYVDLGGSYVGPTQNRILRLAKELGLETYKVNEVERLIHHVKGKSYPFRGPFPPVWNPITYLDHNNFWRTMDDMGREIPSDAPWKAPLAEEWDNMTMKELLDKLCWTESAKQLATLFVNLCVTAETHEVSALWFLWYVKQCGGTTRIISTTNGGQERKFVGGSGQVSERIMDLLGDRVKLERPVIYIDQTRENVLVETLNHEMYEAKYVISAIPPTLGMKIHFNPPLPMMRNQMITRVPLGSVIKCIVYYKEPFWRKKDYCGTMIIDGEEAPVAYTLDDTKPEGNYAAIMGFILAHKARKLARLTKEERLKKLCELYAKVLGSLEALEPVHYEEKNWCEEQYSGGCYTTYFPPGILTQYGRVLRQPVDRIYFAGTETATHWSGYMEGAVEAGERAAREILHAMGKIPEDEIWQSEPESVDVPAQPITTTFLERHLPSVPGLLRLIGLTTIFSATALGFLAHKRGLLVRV
Procedure: (§1) All amine oxidase assays were performed with concentrations as above. MAO-A and MAO-B enzymes were purchased from Promega and Sigma, respectively. The catalytic activity of MAO-A and MAO-B was determined using the Promega MAO-Glo assay kit (substrate included), with clorgyline and deprenyl as positive controls, respectively. DAO was purchased from Sigma and the catalytic activity was determined using the Promega ROS-Glo assay kit, with aminoguanidine as the positive control.

[5] = target: T3, DAO (Sus scrofa, UniProt Q9TRC7); assay: biochemical; settings: n = 2 individual values
T3 construct: purchased Sigma
T3 sequence (Q9TRC7 25-755): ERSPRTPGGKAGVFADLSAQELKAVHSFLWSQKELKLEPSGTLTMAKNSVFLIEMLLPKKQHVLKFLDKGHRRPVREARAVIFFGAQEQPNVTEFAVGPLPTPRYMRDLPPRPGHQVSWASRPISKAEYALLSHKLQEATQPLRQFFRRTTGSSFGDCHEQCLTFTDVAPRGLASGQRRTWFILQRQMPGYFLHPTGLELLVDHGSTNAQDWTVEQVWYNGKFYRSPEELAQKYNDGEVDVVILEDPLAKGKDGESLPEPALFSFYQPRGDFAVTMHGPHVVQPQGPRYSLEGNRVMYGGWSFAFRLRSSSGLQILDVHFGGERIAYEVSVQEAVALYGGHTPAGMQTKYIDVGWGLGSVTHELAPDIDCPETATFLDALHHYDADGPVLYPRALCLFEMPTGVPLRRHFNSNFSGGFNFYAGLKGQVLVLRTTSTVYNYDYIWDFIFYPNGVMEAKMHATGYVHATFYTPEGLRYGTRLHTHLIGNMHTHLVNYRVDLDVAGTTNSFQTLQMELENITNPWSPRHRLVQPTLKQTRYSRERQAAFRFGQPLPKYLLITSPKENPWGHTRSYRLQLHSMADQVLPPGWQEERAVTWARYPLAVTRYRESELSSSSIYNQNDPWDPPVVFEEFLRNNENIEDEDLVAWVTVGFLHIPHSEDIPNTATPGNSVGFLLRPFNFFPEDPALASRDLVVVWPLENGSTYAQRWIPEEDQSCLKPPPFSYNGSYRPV
Procedure: as §1

[6] = Caco-2 permeability assay; type: in vitro ADME; settings: human
[7] = mouse plasma, single oral gavage dose 50 mg/kg

Cc1ccc(-c2cc(S(=O)(=O)c3ccc(CN)s3)ccc2S(C)(=O)=O)cc1.Cl [9l, (5-((4′-Methyl-6-(methylsulfonyl)-[1,1′-biphenyl]-3-yl)sulfonyl)thiophen-2-yl)methanamine Hydrochloride]
MLM stability (%) [1]: 95%
LOX inhibition (in words) [2]: sub-micromolar
AUC(PO) [3, 7]: 12 µM·h
Cmax [3, 7]: 9.4 µM
F (oral bioavailability) ([3]; mouse, PO 50 mg/kg vs IV 10 mg/kg): 74%
CL(IV) ([3]; mouse, intravenous 10 mg/kg): 106 mL/min/kg
t1/2(IV) ([3]; mouse, intravenous 10 mg/kg): 24 min
IC50 [4]: > 100 µM
IC50 [5]: > 100 µM
Papp A→B ([6]; A → B): 18 ×10⁻⁶ cm/s
Papp B→A ([6]; B → A): 25 ×10⁻⁶ cm/s
